Assay results taken from ChEMBL document CHEMBL5053520, “Searching for an ideal SERM: Mining tamoxifen structure-activity relationships” (Bioorg Med Chem Lett, 2021).

Biological target: T1, Estrogen receptor (Homo sapiens, UniProt P03372)
T1 sequence (P03372 whole entry): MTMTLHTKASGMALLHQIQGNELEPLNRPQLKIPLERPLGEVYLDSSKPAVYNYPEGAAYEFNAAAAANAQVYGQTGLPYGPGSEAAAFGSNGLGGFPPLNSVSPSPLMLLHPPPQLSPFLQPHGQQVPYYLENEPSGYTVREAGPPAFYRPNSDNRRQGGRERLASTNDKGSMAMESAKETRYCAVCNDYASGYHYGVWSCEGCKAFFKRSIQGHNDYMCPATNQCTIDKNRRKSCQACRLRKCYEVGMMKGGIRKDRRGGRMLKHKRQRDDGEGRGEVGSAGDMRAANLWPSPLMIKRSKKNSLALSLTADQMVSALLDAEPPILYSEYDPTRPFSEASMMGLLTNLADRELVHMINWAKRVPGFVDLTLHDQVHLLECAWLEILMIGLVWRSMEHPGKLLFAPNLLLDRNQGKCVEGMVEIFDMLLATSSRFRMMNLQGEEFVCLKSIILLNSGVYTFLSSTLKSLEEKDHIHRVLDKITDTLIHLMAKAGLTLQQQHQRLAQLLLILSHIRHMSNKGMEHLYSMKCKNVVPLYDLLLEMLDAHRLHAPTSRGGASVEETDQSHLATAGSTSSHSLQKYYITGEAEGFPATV
Assay: Displacement of fluorescent labeled-ligand from ERalpha (unknown origin) by competitive binding assay

Question: How did the IC50 turn out when `CC/C(=C(\c1ccccc1)c1cccc(OCCCN2CCCCC2)c1)c1ccccc1` was run?
Answer: 333 nM

Question: `CC/C(=C(\c1ccc(O)cc1)c1cccc(OCCN(CC)CC)c1)c1ccccc1` was tested. Which IC50 did it give?
Answer: 35.5 nM

Question: For `CC/C(=C(\c1ccccc1)c1cccc(OCCCN(CC)CC)c1)c1ccccc1`, which IC50 is on record?
Answer: 348 nM

Question: `CC/C(=C(\c1ccc(O)cc1)c1cccc(OCCN2CCCCC2)c1)c1ccccc1` was tested. Which IC50 did it give?
Answer: 21 nM

Question: For `CC/C(=C(\c1ccc(O)cc1)c1cccc(OCCCN(C)C)c1)c1ccccc1`, which IC50 is on record?
Answer: 8.8 nM

Question: How did the IC50 turn out when `CC/C(=C(\c1ccccc1)c1cccc(OCCN2CCCC2)c1)c1ccccc1` was run?
Answer: 81 nM

Question: For `CC/C(=C(\c1ccc(O)cc1)c1cccc(OCCCN2CCCC2)c1)c1ccccc1`, which IC50 is on record?
Answer: 10.7 nM

Question: Which IC50 does the source give for `CC/C(=C(\c1ccccc1)c1cccc(OCCCN(C)C)c1)c1ccccc1` here?
Answer: 124 nM

Question: With `CC/C(=C(\c1ccc(O)cc1)c1cccc(OCCN2CCCC2)c1)c1ccccc1` as the molecule, how does the IC50 read?
Answer: 16.3 nM

Question: `CC/C(=C(\c1ccc(O)cc1)c1cccc(OCCN(C)C)c1)c1ccccc1` was tested. Which IC50 did it give?
Answer: 24.3 nM

Question: With `CC/C(=C(\c1ccccc1)c1cccc(OCCN(C)C)c1)c1ccccc1` as the molecule, how does the IC50 read?
Answer: 255 nM

Question: Which IC50 does the source give for `CC/C(=C(\c1ccccc1)c1cccc(OCCN2CCCCC2)c1)c1ccccc1` here?
Answer: 422 nM

Question: `CC/C(=C(\c1ccc(O)cc1)c1cccc(OCCCN(CC)CC)c1)c1ccccc1` was tested. Which IC50 did it give?
Answer: 15.1 nM

Question: For `CC/C(=C(\c1ccccc1)c1cccc(OCCCN2CCCC2)c1)c1ccccc1`, which IC50 is on record?
Answer: 359 nM

Question: For `CC/C(=C(\c1ccc(O)cc1)c1cccc(OCCCN2CCCCC2)c1)c1ccccc1`, which IC50 is on record?
Answer: 39.1 nM

Question: `CC/C(=C(\c1ccccc1)c1cccc(OCCN(CC)CC)c1)c1ccccc1` was tested. Which IC50 did it give?
Answer: 571 nM
